Measurements reported in ChEMBL document CHEMBL4396882, “2-Aminothiazole-4-carboxamides Enhance Readthrough of Premature Termination Codons by Aminoglycosides” (2019).
Calls of active or inactive are those of the source. The calls are words filed in the database; no cut-off is given here.

How the values were obtained:
HDQ-P1 [1] = assay: Cytotoxicity in human HDQ-P1 cells assessed as reduction in cell viability incubated for 72 hrs in presence of G418 by MTT assay; format: functional, cell-based
HDQ-P1 [2] = assay: Induction of P53 expression in human HDQ-P1 cells assessed as enrichment ratio at 10 uM incubated for 72 hrs in presence of 50 uM G418 by Hoechst 33323 staining based fluorescence assay; format: functional
HDQ-P1 [3] = assay: Ratio of enrichment ratio of test compound at 10 uM to enrichment ratio of CDX5-1 at 30 uM in human HDQ-P1 cells by automated electrophoresis western analysis; format: functional
HDQ-P1 [4] = assay: Induction of P53 expression in human HDQ-P1 cells assessed as enrichment ratio at 3 uM incubated for 72 hrs in presence of 50 uM G418 by Hoechst 33323 staining based fluorescence assay; format: functional
HDQ-P1 [5] = assay: Induction of P53 expression in human HDQ-P1 cells assessed as enrichment ratio at 10 uM incubated for 72 hrs in presence of 50 uM G418 by automated electrophoresis western analysis; format: functional
HDQ-P1 [6] = assay: Induction of P53 expression in human HDQ-P1 cells assessed as enrichment ratio at 3 uM incubated for 72 hrs in presence of 50 uM G418 by automated electrophoresis western analysis; format: functional
HDQ-P1 [7] = assay: Cytotoxicity in human HDQ-P1 cells assessed as reduction in cell viability at 3 uM incubated for 72 hrs by MTT assay relative to control; format: functional
HDQ-P1 [8] = assay: Effect on human HDQ-P1 cells assessed as increase in TP53 R213X mRNA level at 10 uM incubated for 72 hrs in presence of G418 by RT-qPCR analysis; format: functional, cell-based
HDQ-P1 [9] = assay: Cytotoxicity in human HDQ-P1 cells assessed as reduction in cell viability at 1 uM incubated for 72 hrs by MTT assay; format: functional, cell-based
HDQ-P1 [10] = assay: Induction of P53 expression in human HDQ-P1 cells assessed as enrichment ratio at 10 uM incubated for 72 hrs by automated electrophoresis western analysis; format: functional
HDQ-P1 [11] = assay: Effect on human HDQ-P1 cells assessed as increase in TP53 R213X mRNA level at 10 uM incubated for 72 hrs by RT-qPCR analysis; format: functional, cell-based
HDQ-P1 [12] = assay: Induction of P53 expression in human HDQ-P1 cells assessed as enrichment ratio at 3 uM incubated for 72 hrs in presence of gentamicin by automated electrophoresis western analysis; format: functional
HDQ-P1 [13] = assay: Induction of P53 expression in human HDQ-P1 cells assessed as enrichment ratio at 10 uM incubated for 72 hrs in presence of 25 uM G418 by automated electrophoresis western analysis; format: functional
HDQ-P1 [14] = assay: Induction of P53 expression in human HDQ-P1 cells assessed as enrichment ratio at 30 uM incubated for 72 hrs in presence of 25 uM G418 by automated electrophoresis western analysis; format: functional
HDQ-P1 [15] = assay: Induction of P53 expression in human HDQ-P1 cells assessed as enrichment ratio at 30 uM incubated for 72 hrs by automated electrophoresis western analysis; format: functional

SMILES | Ratio (HDQ-P1 [2]) | Ratio (HDQ-P1 [4]) | Ratio (HDQ-P1 [5]) | Ratio (HDQ-P1 [6]) | further results
CSc1ccc(NC(=O)c2csc(Nc3cccc4[nH]ncc34)n2)cc1 | 20.1 | 8.2 | 7.2 | 5.3 | Activity (HDQ-P1 [1]): Active; Ratio (HDQ-P1 [3]): 3; Activity (HDQ-P1 [7]): 60%; Activity (HDQ-P1 [8]): inactive; Activity (HDQ-P1 [9]): inactive; Ratio (HDQ-P1 [10]): 0.1; Activity (HDQ-P1 [11]): inactive; Ratio (HDQ-P1 [12]): 10.8; Ratio (HDQ-P1 [13]): 8.8
O=C(Nc1ccc2c(c1)OCO2)c1cnc(Nc2ccc3[nH]ncc3c2)s1 | 19.2 | 1.2 | – | – | –
O=C(Nc1ccc2c(c1)OCO2)c1csc(Nc2ccc3[nH]ncc3c2)n1 | 5.4 | 1.2 | – | – | –
O=C(Nc1ccc2c(c1)OCO2)c1csc(Nc2ccc3ncccc3c2)n1 | 10.7 | 3.5 | 10.7 | 3.6 | –
COc1ccc(NC(=O)c2csc(Nc3cccc4[nH]ncc34)n2)cc1 | 5.9 | 1.6 | – | – | –
O=C(Nc1ccc2[nH]ccc2c1)c1csc(Nc2ccc3[nH]ncc3c2)n1 | 23 | 1.3 | – | – | –
O=C(Nc1ccccc1)c1csc(Nc2ccc3[nH]ncc3c2)n1 | 11.2 | 2.5 | – | – | –
O=C(Nc1ccc2c(c1)OCCO2)c1csc(Nc2ccc(=O)[nH]c2)n1 | 7 | 3.8 | 2.3 | 2.4 | –
O=C1NC(=O)c2cc(NCc3c(Cl)cccc3Cl)ccc21 | – | – | – | – | Ratio (HDQ-P1 [14]): 8.3; Ratio (HDQ-P1 [15]): 0.1; Ratio (HDQ-P1 [10]): 0.1; Ratio (HDQ-P1 [13]): 2.8
COc1cc(NC(=O)c2csc(Nc3cccc4[nH]ncc34)n2)cc(OC)c1OC | 7.2 | 5.3 | 20.1 | 8.2 | –
CSc1ccc(NC(=O)c2cnc(Nc3ccc4[nH]ncc4c3)s2)cc1 | 4.7 | 1.6 | – | – | –
O=C(Nc1ccc2[nH]ncc2c1)c1csc(Nc2ccc3[nH]ccc3c2)n1 | 8 | 1.4 | – | – | –
O=C(Nc1ccc2c(c1)OCCO2)c1csc(Nc2cccc3[nH]ncc23)n1 | 15.8 | 3.4 | 15.8 | 3.4 | –
O=C(Nc1ccc(F)cc1)c1csc(Nc2cccc3[nH]ncc23)n1 | 23.3 | 13.1 | 23.3 | 13.1 | Activity (HDQ-P1 [1]): Active; Ratio (HDQ-P1 [3]): 3; Activity (HDQ-P1 [7]): 42%; Activity (HDQ-P1 [8]): inactive; Activity (HDQ-P1 [9]): inactive; Ratio (HDQ-P1 [10]): 0.3; Activity (HDQ-P1 [11]): inactive; Ratio (HDQ-P1 [13]): 25.7
COc1ccc(NC(=O)c2csc(Nc3cccc4[nH]ncc34)n2)cn1 | 27.2 | 1.4 | – | – | –
O=C(Nc1ccc2c(c1)OCCO2)c1csc(Nc2ccc3ncccc3c2)n1 | 8.7 | 1.6 | – | – | –
COc1ccc(NC(=O)c2cnc(Nc3ccc4[nH]ncc4c3)s2)cn1 | 7.8 | 2.2 | – | – | –
